Reference: patent US9757596B2, “Composition comprising at least 3 different diols” (AMBRIA DERMATOLOGY AB, priority 2004, dated 2017)

Assays:
Assay type in all cases: cell-based
[1] = system: Staphylococcus aureus number 515×6352; experiment: Test for bacteriostatic effect (MIC) in agar medium, S. aureus; details: combinations: % of each diol; for MIC S. aureaus 10^3: 10^3 cells/ml; for MIC S. aureaus 10^3 / MIC S. aureaus 10^5: DST agar, 37° C., analysed after 1 and 2 days; for MIC S. aureaus 10^5: 10^5 cells/ml; for concentration that completely inhibited the growth of S. aureus: cell concentration not specified
Protocol: (§1) Staphylococcus aureus number 515×6352 and Candida albicans H 29 were obtained from the Collection in the Department of Microbiology, Sahigrenska University Hospital, Gothenburg, Sweden. The isolates were maintained on blood agar at 37° C. M. sympodialis CBS 7222 and M. globosa CBS 7966
(§2) Test for bacteriostatic effect (MIC=minimal inhitory concentration).
(§3) Each of the diols and their combination (1:1:1 volume/volume) was diluted directly with the test culture medium, Diagnostic Sensitivity test agar (DST) (Oxoid, UK) to obtain concentrations, in the test medium, of 2, 3, 4, 6, 9, and 12% volume percent of the respective diol and of 2, 3, and 4% of the respective diol in the combination.
S. aureus cells were added to the agar medium in concentrations of 10^3 and 10^5 cells/ml while C. albicans cells were added in a concentration of 10^6 cells/ml and M. sympodialis and M. globosa in a concentration of 10^7 cells/ml. Plates were incubated at 37° C. and analysed after 1 and 2 days. Each experiment was repeated. […] The MIC's for propane-1,2-diol, pentane-1,5-diol, 2-methylpentane-2,4-diol and the combination of these 3 diols are shown in the table 1. […]

M. sympodialis CBS 7222 = experiment: Test for bacteriostatic effect (MIC) in agar medium, M. sympodialis; details: 10^7 cells/ml, DST agar, 37° C., analysed after 1 and 2 days; combinations: % of each diol
Protocol: as §1, with “Sahigrenska” left out, “7966 Test for bacteriostatic effect (MIC=minimal inhitory concentration). […] Plates were incubated at 37° C. and analysed after 1 and 2 days. Each experiment was repeated.” for “7966”

M. globosa CBS 7966 = experiment: Test for bacteriostatic effect (MIC) in agar medium, M. globosa; details: 10^7 cells/ml, DST agar, 37° C., analysed after 1 and 2 days; combinations: % of each diol
Protocol: as §1, with “Sahigrenska” left out, “7966 Test for bacteriostatic effect (MIC=minimal inhitory concentration). […] Plates were incubated at 37° C. and analysed after 1 and 2 days. Each experiment was repeated.” for “7966”

Candida albicans H 29 = experiment: Test for bacteriostatic effect (MIC) in agar medium, C. albicans; details: 10^6 cells/ml, DST agar, 37° C., analysed after 1 and 2 days; combinations: % of each diol
Protocol: as §1, §2, §3
S. aureus cells were added to the agar medium in concentrations of 10^3 and 10^5 cells/ml while C. albicans cells were added in a concentration of 10^6 cells/ml and M. sympodialis and M. globosa in a concentration of 10^7 cells/ml. Plates were incubated at 37° C. and analysed after 1 and 2 days. Each experiment was repeated. […] The MIC's for propane-1,2-diol, pentane-1,5-diol, 2-methylpentane-2,4-diol and the combination of these 3 diols are shown in the table 1.
Example 3 was performed as example 1.

SMILES | MIC S. aureaus 10^3 [1] | MIC S. aureaus 10^5 [1] | MIC M. sympodialis (M. sympodialis CBS 7222) | MIC M. globosa (M. globosa CBS 7966) | MIC C. albicans 10^6 (Candida albicans H 29) | concentration that completely inhibited the growth of S. aureus [1]
CC(O)CC(C)(C)O (stereo not drawn) [2-Methyl pentane-2,4-diol] | 12% | 12% | 3% | 3% | 4% | 12%
CC(O)CCO (stereo not drawn) [Butane-1,3-diol] | >12% | >12% | 10% | 10% | 8% | –
CCO [Ethanol] | >12% | >12% | 10% | 10% | 8% | –

Further lines, with some results ahead:

MIC S. aureaus 10^3 [1] | MIC S. aureaus 10^5 [1] | MIC M. sympodialis (M. sympodialis CBS 7222) | MIC M. globosa (M. globosa CBS 7966) | MIC C. albicans 10^6 (Candida albicans H 29) | SMILES | concentration that completely inhibited the growth of S. aureus [1]
12% | 12% | 3% | 3% | 4% | OCCCCCO [Pentane-1,5-diol] | 12%
>12% | >12% | 10% | 10% | 9% | CC(O)CO (stereo not drawn) [Propane-1,2-diol] | –
